In assay [1] the target is T1, HiBit-BRG1 fusion protein (Homo sapiens, UniProt P51532).
T1 construct: expressed in transfected cells
In words: HiBiT-BRG1 cell-based degradation assay (Nano-Glo HiBiT Lytic Detection). As to conditions: stable HeLa cell line expressing HiBit-BRG1 and LgBit, 24 h incubation; for Dmax: top dose 30 μM, read-out: BRG1 HiBit Degradation Maximum (%); for DC50: read-out: BRMG1 HiBit Degradation IC50. On the procedure:
(§1) Procedure: A stable HeLa cell line expressing HiBiT-BRM was generated. On day 0, 5000 cells were seeded in 40 μL of media into each well of 384-well cell culture plates. On day 1, cells were treated with 120 nL DMSO or 120 nL of 3-fold serially DMSO-diluted compounds (10 points in duplicate with 30 μM as final top dose). Subsequently plates were incubated for 24 h in a standard tissue culture incubator and equilibrated at room temperature for 15 minutes. Nano-Glo HiBiT Lytic Detection System (Promega N3050) reagent was freshly prepared and 20 ul was added to each well. Upon addition of this LgBit-containing reagent, the HiBiT and LgBiT proteins associate to form the luminescent NanoBiT luciferase. The plates were shaken for 10 minutes at room temperature and the bioluminescence read using an EnVision plate reader (PerkinElmer).
For measurement of BRG1 degradation, a stable HeLa cell line expressing HiBit-BRG1 and LgBit was generated. The same protocol as above was then followed.
(§2) The degradation % was calculated using the following formula: % degradation=100%−100%×(LumSample−LumLC)/(LumHC−LumLC). DMSO treated cells are employed as High Control (HC) and 2 μM of a known BRM/BRG1 degrader standard treated cells are employed as Low Control (LC).
For orientation: The HiBiT peptide binds its large partner to form an active luciferase.

For the next assay, the target named is T2, HiBit-BRM fusion protein (Homo sapiens, UniProt P51531).
T2 construct: expressed in transfected cells
Put plainly: HiBiT-BRM cell-based degradation assay (Nano-Glo HiBiT Lytic Detection). As to conditions: stable HeLa cell line expressing HiBiT-BRM, 24 h incubation; for BRM HiBit Degradation Maximum (%): top dose 30 μM; for DC50: read-out: BRM HiBit Degradation IC50. On the procedure:
as §1, §2

T1 sequence (P51532 whole entry, the tested form may be a part): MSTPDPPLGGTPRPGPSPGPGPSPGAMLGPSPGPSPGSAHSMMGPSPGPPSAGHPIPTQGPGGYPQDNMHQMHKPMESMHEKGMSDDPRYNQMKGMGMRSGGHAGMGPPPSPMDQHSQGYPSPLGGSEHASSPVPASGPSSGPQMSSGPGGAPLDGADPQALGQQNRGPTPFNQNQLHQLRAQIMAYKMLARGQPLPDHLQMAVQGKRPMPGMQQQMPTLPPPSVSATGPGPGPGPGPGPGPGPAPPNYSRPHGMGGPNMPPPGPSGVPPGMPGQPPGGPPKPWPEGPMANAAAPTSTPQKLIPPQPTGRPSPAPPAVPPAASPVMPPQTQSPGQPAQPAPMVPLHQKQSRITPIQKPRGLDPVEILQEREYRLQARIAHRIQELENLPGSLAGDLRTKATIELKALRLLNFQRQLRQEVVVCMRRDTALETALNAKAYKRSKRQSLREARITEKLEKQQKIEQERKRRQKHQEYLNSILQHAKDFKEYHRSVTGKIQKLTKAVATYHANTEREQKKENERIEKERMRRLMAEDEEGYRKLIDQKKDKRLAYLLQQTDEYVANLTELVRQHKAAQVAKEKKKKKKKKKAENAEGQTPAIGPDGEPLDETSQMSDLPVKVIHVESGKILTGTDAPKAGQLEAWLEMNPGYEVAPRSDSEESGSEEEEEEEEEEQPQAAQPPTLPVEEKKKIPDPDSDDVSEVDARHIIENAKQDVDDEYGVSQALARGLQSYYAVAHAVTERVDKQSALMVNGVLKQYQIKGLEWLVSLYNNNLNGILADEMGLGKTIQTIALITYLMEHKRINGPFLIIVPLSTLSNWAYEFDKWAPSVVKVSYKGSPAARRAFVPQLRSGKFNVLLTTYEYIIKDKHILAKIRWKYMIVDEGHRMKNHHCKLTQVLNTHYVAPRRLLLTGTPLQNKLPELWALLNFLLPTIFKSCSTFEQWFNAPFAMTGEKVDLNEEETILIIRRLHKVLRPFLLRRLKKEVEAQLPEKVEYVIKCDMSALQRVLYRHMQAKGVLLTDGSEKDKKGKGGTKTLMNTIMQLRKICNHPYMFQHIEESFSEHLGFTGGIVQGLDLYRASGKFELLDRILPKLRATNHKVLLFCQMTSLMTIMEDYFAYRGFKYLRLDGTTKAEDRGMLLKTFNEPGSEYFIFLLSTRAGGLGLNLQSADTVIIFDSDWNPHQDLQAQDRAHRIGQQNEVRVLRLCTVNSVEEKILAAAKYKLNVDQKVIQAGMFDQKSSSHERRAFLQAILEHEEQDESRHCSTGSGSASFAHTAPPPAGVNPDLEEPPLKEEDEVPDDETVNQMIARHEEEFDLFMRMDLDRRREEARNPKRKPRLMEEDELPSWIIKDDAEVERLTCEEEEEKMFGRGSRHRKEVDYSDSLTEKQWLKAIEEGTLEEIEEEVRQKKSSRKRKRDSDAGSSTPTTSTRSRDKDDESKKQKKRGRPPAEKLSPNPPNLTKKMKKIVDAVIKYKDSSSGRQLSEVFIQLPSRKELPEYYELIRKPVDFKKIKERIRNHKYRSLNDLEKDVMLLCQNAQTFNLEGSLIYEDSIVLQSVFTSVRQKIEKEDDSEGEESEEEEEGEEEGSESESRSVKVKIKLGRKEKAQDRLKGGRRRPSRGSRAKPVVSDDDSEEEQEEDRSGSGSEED
T2 sequence (P51531 whole entry, the tested form may be a part): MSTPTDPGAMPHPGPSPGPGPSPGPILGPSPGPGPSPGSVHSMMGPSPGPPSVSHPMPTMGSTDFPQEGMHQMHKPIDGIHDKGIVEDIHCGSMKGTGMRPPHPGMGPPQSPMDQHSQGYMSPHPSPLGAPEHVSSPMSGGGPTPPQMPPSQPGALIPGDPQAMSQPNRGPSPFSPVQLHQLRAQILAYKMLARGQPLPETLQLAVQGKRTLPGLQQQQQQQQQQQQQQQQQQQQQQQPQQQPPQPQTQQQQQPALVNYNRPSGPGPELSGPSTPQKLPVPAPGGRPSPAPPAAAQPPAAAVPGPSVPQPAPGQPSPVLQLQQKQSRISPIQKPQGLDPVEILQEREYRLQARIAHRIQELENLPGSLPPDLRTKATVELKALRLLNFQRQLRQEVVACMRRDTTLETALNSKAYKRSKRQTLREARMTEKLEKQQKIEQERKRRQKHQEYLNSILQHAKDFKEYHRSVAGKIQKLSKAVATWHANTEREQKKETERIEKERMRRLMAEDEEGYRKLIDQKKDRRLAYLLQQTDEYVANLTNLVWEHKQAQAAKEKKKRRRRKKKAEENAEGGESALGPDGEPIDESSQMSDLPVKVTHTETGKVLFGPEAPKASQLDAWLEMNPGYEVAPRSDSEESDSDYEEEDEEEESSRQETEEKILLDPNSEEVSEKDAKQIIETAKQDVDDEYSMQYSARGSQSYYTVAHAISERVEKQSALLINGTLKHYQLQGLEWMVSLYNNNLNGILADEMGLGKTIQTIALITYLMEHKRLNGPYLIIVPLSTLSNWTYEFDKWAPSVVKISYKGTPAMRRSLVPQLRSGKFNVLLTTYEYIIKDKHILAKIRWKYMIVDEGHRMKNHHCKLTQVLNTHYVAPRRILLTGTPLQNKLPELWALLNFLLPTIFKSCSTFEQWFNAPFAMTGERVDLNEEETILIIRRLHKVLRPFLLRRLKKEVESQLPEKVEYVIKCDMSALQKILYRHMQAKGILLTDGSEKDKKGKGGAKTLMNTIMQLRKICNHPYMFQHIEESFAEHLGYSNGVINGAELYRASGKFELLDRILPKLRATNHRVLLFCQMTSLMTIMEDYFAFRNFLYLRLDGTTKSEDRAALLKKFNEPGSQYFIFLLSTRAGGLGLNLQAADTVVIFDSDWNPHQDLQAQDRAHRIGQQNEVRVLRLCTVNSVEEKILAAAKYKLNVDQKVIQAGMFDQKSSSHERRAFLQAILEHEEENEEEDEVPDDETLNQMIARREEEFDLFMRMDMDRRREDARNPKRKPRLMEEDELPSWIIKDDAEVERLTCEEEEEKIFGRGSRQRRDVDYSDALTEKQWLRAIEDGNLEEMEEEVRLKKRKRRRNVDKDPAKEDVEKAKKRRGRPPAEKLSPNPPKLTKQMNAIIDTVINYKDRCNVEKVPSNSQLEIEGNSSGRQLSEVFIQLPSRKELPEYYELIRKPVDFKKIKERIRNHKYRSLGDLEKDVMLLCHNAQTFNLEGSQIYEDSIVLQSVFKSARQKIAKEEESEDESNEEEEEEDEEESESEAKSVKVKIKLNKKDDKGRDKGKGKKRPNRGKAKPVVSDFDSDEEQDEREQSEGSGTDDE

Turning to `Cc1ncsc1-c1ccc([C@H](C)NC(=O)[C@@H]2C[C@@H](O)CN2C(=O)[C@@H](c2cc(OCCN3CC4(CC(c5sc6nnc(-c7ccccc7O)cc6c5C)C4)C3)no2)C(C)C)cc1` [Compound 88, (2S,4R)-4-hydroxy-1-((R)-2-(3-(2-(6-(3-(2-hydroxyphenyl)-5-methylthieno[2,3-c]pyridazin-6-yl)-2-azaspiro[3.3]heptan-2-yl)ethoxy)isoxazol-5-yl)-3-methylbutanoyl)-N-((S)-1-(4-(4-methylthiazol-5-yl)phenyl)ethyl)pyrrolidine-2-carboxamide], in assay [1], the Dmax was under 50% and the DC50 is at least 1000 nM. For the same molecule, on HiBit-BRM fusion protein, the “BRM HiBit Degradation Maximum (%)” value was “A (“A” indicates maximum degradation ≥ 75%)” and the DC50 was at least 10 nM.

For `Cc1ncsc1-c1ccc([C@H](C)NC(=O)[C@@H]2C[C@@H](O)CN2C(=O)[C@@H](c2cc(OCCN3C[C@H]4C[C@@H](C3)[C@H]4c3sc4nnc(-c5ccccc5O)cc4c3C)no2)C(C)C)cc1` [Compound 62, (2S,4R)-4-hydroxy-1-((R)-2-(3-(2-((1R,5S,6S)-6-(3-(2-hydroxyphenyl)-5-methylthieno[2,3-c]pyridazin-6-yl)-3-azabicyclo[3.1.1]heptan-3-yl)ethoxy)isoxazol-5-yl)-3-methylbutanoyl)-N-((S)-1-(4-(4-methylthiazol-5-yl)phenyl)ethyl)pyrrolidine-2-carboxamide], in assay [1], the Dmax was under 50% and the DC50 is at least 1000 nM. Further, on HiBit-BRM fusion protein, the “BRM HiBit Degradation Maximum (%)” value is “C (“C” indicates maximum degradation < 50%)” and the DC50 was at least 1000 nM.

`Cc1ncsc1-c1ccc([C@H](C)NC(=O)[C@@H]2C[C@@H](O)CN2C(=O)[C@@H](c2cc(C34CC(CN5CCC(c6sc7nnc(-c8ccccc8O)cc7c6C)CC5)(C3)C4)no2)C(C)C)cc1` [Compound 72, (2S,4R)-4-hydroxy-1-[(2R)-2-{3-[3-({4-[3-(2-hydroxyphenyl)-5-methylthieno[2,3-c]pyridazin-6-yl]piperidin-1-yl}methyl)bicyclo[1.1.1]pentan-1-yl]-1,2-oxazol-5-yl}-3-methylbutanoyl]-N-[(1S)-1-[4-(4-methyl-1,3-thiazol-5-yl)phenyl]ethyl]pyrrolidine-2-carboxamide]: in assay [1], the Dmax is at least 75% and the DC50 was at least 10 nM. Also, at HiBit-BRM fusion protein, the “BRM HiBit Degradation Maximum (%)” value is on record as “A (“A” indicates maximum degradation ≥ 75%)” and the DC50 was under 10 nM.

Regarding `Cc1ncsc1-c1ccc([C@H](C)NC(=O)[C@@H]2C[C@@H](O)CN2C(=O)[C@@H](c2cc(OCCN3CC(Cc4c(C)sc5nnc(-c6ccccc6O)cc45)C3)no2)C(C)C)cc1` [Compound 110, (2S,4R)-4-hydroxy-1-((R)-2-(3-(2-(3-((3-(2-hydroxyphenyl)-6-methylthieno[2,3-c]pyridazin-5-yl)methyl)azetidin-1-yl)ethoxy)isoxazol-5-yl)-3-methylbutanoyl)-N-((S)-1-(4-(4-methylthiazol-5-yl)phenyl)ethyl)pyrrolidine-2-carboxamide], in assay [1], the Dmax was under 50% and the DC50 is at least 1000 nM. Also, at HiBit-BRM fusion protein, the “BRM HiBit Degradation Maximum (%)” value is recorded as “B (“B” indicates maximum degradation ≥ 50%)” and the DC50 was at least 1000 nM.

Consider `Cc1ncsc1-c1ccc(CNC(=O)[C@@H]2C[C@@H](O)CN2C(=O)[C@@H](NC(=O)C2(F)CC2)C(C)(C)C)c(OCCCN2CCC(c3cc4nnc(-c5ccccc5O)cc4s3)CC2)c1` [Compound 76, (2S,4R)-1-((S)-2-(1-fluorocyclopropane-1-carboxamido)-3,3-dimethylbutanoyl)-4-hydroxy-N-(2-(3-(4-(3-(2-hydroxyphenyl)thieno[3,2-c]pyridazin-6-yl)piperidin-1-yl)propoxy)-4-(4-methylthiazol-5-yl)benzyl)pyrrolidine-2-carboxamide], for which, in assay [1], the Dmax was under 50% and the DC50 is at least 100 nM. At HiBit-BRM fusion protein, the “BRM HiBit Degradation Maximum (%)” value was “B (“B” indicates maximum degradation ≥ 50%)” and the DC50 is at least 10 nM.

`Cc1ncsc1-c1ccc([C@H](C)NC(=O)[C@@H]2C[C@@H](O)CN2C(=O)[C@@H](c2cc(OCCCN3CCc4sc5nnc(-c6ccccc6O)cc5c4C3)no2)C(C)C)cc1` [Compound 69, (2S,4R)-4-hydroxy-1-((R)-2-(3-(3-(3-(2-hydroxyphenyl)-7,8-dihydropyrido[3′,4′:4,5]thieno[2,3-c]pyridazin-6(5H)-yl)propoxy)isoxazol-5-yl)-3-methylbutanoyl)-N-((S)-1-(4-(4-methylthiazol-5-yl)phenyl)ethyl)pyrrolidine-2-carboxamide]: in assay [1], the Dmax is under 50% and the DC50 was at least 1000 nM. Also, on HiBit-BRM fusion protein, the “BRM HiBit Degradation Maximum (%)” value is on record as “C (“C” indicates maximum degradation < 50%)” and the DC50 was at least 1000 nM.

For `Cc1ncsc1-c1ccc(CNC(=O)[C@@H]2C[C@@H](O)CN2C(=O)[C@@H](NC(=O)CCCCC(=O)N2CC(c3sc4nnc(-c5ccccc5O)cc4c3C)C2)C(C)(C)C)cc1` [Compound 18], in assay [1], the Dmax is under 50% and the DC50 is at least 1000 nM. At HiBit-BRM fusion protein, the “BRM HiBit Degradation Maximum (%)” value is given as “C (“C” indicates maximum degradation < 50%)” and the DC50 is at least 1000 nM.

Consider `Cc1ncsc1-c1ccc([C@H](C)NC(=O)[C@@H]2C[C@@H](O)CN2C(=O)[C@@H](c2cc(O[C@H]3C[C@@H](N4CCC(c5sc6nnc(-c7ccccc7O)cc6c5C)CC4)C3)no2)C(C)C)cc1` [Compound 61, (2S,4R)-4-hydroxy-1-((R)-2-(3-((1s,3S)-3-(4-(3-(2-hydroxyphenyl)-5-methylthieno[2,3-c]pyridazin-6-yl)piperidin-1-yl)cyclobutoxy)isoxazol-5-yl)-3-methylbutanoyl)-N-((S)-1-(4-(4-methylthiazol-5-yl)phenyl)ethyl)pyrrolidine-2-carboxamide], for which, in assay [1], the Dmax was under 50% and the DC50 is at least 1000 nM. Also, at HiBit-BRM fusion protein, the “BRM HiBit Degradation Maximum (%)” value is recorded as “C (“C” indicates maximum degradation < 50%)” and the DC50 was at least 1000 nM.

Turning to `Cc1ncsc1-c1ccc([C@H](C)NC(=O)[C@@H]2C[C@@H](O)CN2C(=O)[C@@H](c2cc(N3CCC(C(=O)N4CC(c5cc6cc(-c7ccccc7O)nnc6s5)C4)CC3)no2)C(C)C)cc1` [Compound 5, (2S,4R)-4-hydroxy-1-((R)-2-(3-(4-(3-(3-(2-hydroxyphenyl)thieno[2,3-c]pyridazin-6-yl)azetidine-1-carbonyl)piperidin-1-yl)isoxazol-5-yl)-3-methylbutanoyl)-N—((S)-1-(4-(4-methylthiazol-5-yl)phenyl)ethyl)pyrrolidine-2-carboxamide], in assay [1], the Dmax is under 50% and the DC50 is at least 1000 nM. At HiBit-BRM fusion protein, the “BRM HiBit Degradation Maximum (%)” value was “A (“A” indicates maximum degradation ≥ 75%)” and the DC50 is at least 10 nM.

For `Cc1ncsc1-c1ccc([C@H](C)NC(=O)[C@@H]2C[C@@H](O)CN2C(=O)[C@@H](c2cc(OCCN3CCC(O)(c4cc5nnc(-c6ccccc6O)cc5s4)CC3)no2)C(C)C)cc1` [Compound 73, (2S,4R)-4-hydroxy-1-((R)-2-(3-(2-(4-hydroxy-4-(3-(2-hydroxyphenyl)thieno[3,2-c]pyridazin-6-yl)piperidin-1-yl)ethoxy)isoxazol-5-yl)-3-methylbutanoyl)-N-((S)-1-(4-(4-methylthiazol-5-yl)phenyl)ethyl)pyrrolidine-2-carboxamide], in assay [1], the Dmax is under 50% and the DC50 is at least 1000 nM. Also, at HiBit-BRM fusion protein, the “BRM HiBit Degradation Maximum (%)” value is “A (“A” indicates maximum degradation ≥ 75%)” and the DC50 was at least 10 nM.

For the molecule `Cc1ncsc1-c1ccc([C@H](C)NC(=O)[C@@H]2C[C@@H](O)CN2C(=O)[C@@H](c2cc(OCCN3CCC(N4CC(c5sc6nnc(-c7ccccc7O)cc6c5C)C4)CC3)no2)C(C)C)cc1` [Compound 100, (2S,4R)-4-hydroxy-1-((R)-2-(3-(2-(4-(3-(3-(2-hydroxyphenyl)-5-methylthieno[2,3-c]pyridazin-6-yl)azetidin-1-yl)piperidin-1-yl)ethoxy)isoxazol-5-yl)-3-methylbutanoyl)-N-((S)-1-(4-(4-methylthiazol-5-yl)phenyl)ethyl)pyrrolidine-2-carboxamide], in assay [1], the Dmax is under 50% and the DC50 was at least 1000 nM. For the same molecule, on HiBit-BRM fusion protein, the “BRM HiBit Degradation Maximum (%)” value is recorded as “A (“A” indicates maximum degradation ≥ 75%)” and the DC50 was at least 10 nM.

On to `Cc1ncsc1-c1ccc([C@H](C)NC(=O)[C@@H]2C[C@@H](O)CN2C(=O)[C@@H](c2cc(OCCN3CCN(c4sc5nnc(-c6ccccc6O)cc5c4C)CC3)no2)C(C)C)cc1` [Compound 66, (2S,4R)-4-hydroxy-1-((R)-2-(3-(2-(4-(3-(2-hydroxyphenyl)-5-methylthieno[2,3-c]pyridazin-6-yl)piperazin-1-yl)ethoxy)isoxazol-5-yl)-3-methylbutanoyl)-N-((S)-1-(4-(4-methylthiazol-5-yl)phenyl)ethyl)pyrrolidine-2-carboxamide], for which, in assay [1], the Dmax is at least 75% and the DC50 is at least 10 nM. At HiBit-BRM fusion protein, the “BRM HiBit Degradation Maximum (%)” value was “A (“A” indicates maximum degradation ≥ 75%)” and the DC50 is under 10 nM.

These data come from patent publication US20240376121A1, “COMPOUNDS AND USES THEREOF” (Foghorn Therapeutics Inc., priority 2021, published 2024).
